Read-outs that look alike come from different tables or passages of the source.
System: GFP genetically modified strain of F. graminearum
Type: in vivo, Fusarium graminearum
Details: seed treatment 5 g a.i./100 kg seeds

Measured: Intensity of F. graminearum (PCR analysis: 0 to 4 scale)

N#Cc1c[nH]cc1-c1cccc2c1OC(F)(F)O2 [Lot B, fludioxonil]
0: Beginning of earing (GS 51), 1st internode | Beginning of earing (GS 51), 2nd internode | Beginning of earing (GS 51), 3rd internode | Beginning of earing (GS 51), 4th internode | Beginning of earing (GS 51), ear | Ear 1-2 cm (GS 31), First internode | Ear 1-2 cm (GS 31), Future internodes and ear | Ear 1-2 cm (GS 31), Second internode | End of tillering (GS 29), Above bottom of the plant (0.5 cm) | End of tillering (GS 29), Bottom of the plant (0.5 cm) | End of tillering (GS 29), Secondary roots | End of tillering (GS 29), primary roots | End of tillering (GS 29), rhizome | Full maturity (GS 94), 1st internode | Full maturity (GS 94), 2nd internode | Full maturity (GS 94), 3rd internode | Full maturity (GS 94), 4th internode | Full maturity (GS 94), 5th internode | Full maturity (GS 94), Ear + grains
